# Laboratory results as given in patent publication US6525001B1, “Substituted pyrimidine and pyridine herbicides” (Mid-American Commercialization Corporation, priority 1997, dated 2003).
# Experiments:
# Type in all cases: in vivo
# Design in all cases: key: 0 is no effect; 10 is complete control
# [1] = test system: smallflower flatsedge (Cyperus difformis); experiment: Test B flood test
# Description: (§1) At the same time, these crop and weed species were also treated with postemergence applications of test chemicals formulated in the same manner. Plants ranged in height from 2 to 18 cm (1- to 4-leaf stage) for postemergence treatments. Plant species in the flood test consisted of rice (Oryza sativa), smallflower flatsedge (Cyperus difformis), duck salad (Heteranthera limosa) and bamyardgrass (Echinochloa crus-galli) grown to the 2-leaf stage for testing. Treated plants and controls were maintained in a greenhouse for twelve to sixteen days, after which all species were compared to controls and visually evaluated. Plant response ratings, summarized in Table B, are based on a scale of 0 to 10 where 0 is no effect and 10 is complete control. A dash (−) response means no test result.
# [2] = test system: duck salad (Heteranthera limosa); experiment: Test B flood test
# Description: as §1
# rice (Oryza sativa) = experiment: Test B flood test
# Description: as §1
# [3] = test system: bamyardgrass (Echinochloa crus-galli); experiment: Test B flood test
# Description: as §1
# [4] = test system: wheat (Triticum aestivum); experiment: Test B pre-/postemergence
# Description: (§2) Seeds of bedstraw (Galium aparine), blackgrass (Alopecurus myosuroides), broadleaf signalgrass (Brachiaria decumbens), cocklebur (Xanthium strumarium), corn (Zea mays), crabgrass (Digitaria sanguinalis), giant foxtail (Setaria faberii), lambsquarters (Chenopodium album), momingglory (Ipomoea hederacea), pigweed (Amaranthus retroflexus), rape (Brassica napus), soybean (Glycine max), sugar beet (Beta vulgaris), velvetleaf (Abutilon theophrasti), wheat (Triticum aestivum), wild oat (Avena fatua) and purple nutsedge (Cyperus rotundus) tubers were planted and treated preemergence with test chemicals formulated in a non-phytotoxic solvent mixture which included a surfactant.
# as §1
# [5] = test system: pigweed (Amaranthus retroflexus); experiment: Test B pre-/postemergence
# Description: as §2, §1
# [6] = test system: momingglory (Ipomoea hederacea); experiment: Test B pre-/postemergence
# Description: as §2, §1
# [7] = test system: sugar beet (Beta vulgaris); experiment: Test B pre-/postemergence
# Description: as §2, §1
# [8] = test system: broadleaf signalgrass (Brachiaria decumbens); experiment: Test B pre-/postemergence
# Description: as §2, §1
# [9] = test system: crabgrass (Digitaria sanguinalis); experiment: Test B pre-/postemergence
# Description: as §2, §1
# corn (Zea mays) = experiment: Test B pre-/postemergence
# Description: as §2, §1
# [10] = test system: giant foxtail (Setaria faberii); experiment: Test B pre-/postemergence
# Description: as §2, §1
# [11] = test system: velvetleaf (Abutilon theophrasti); experiment: Test B pre-/postemergence
# Description: as §2, §1
# rape (Brassica napus) = experiment: Test B pre-/postemergence
# Description: as §2, §1
# [12] = test system: cocklebur (Xanthium strumarium); experiment: Test B pre-/postemergence
# Description: as §2, §1
# soybean (Glycine max) = experiment: Test B pre-/postemergence
# Description: as §2, §1
# [13] = test system: blackgrass (Alopecurus myosuroides); experiment: Test B pre-/postemergence
# Description: as §2, §1
# [14] = test system: bedstraw (Galium aparine); experiment: Test B pre-/postemergence
# Description: as §2, §1
# wild oat (Avena fatua) = experiment: Test B pre-/postemergence
# Description: as §2, §1
# [15] = Rate 62 g/ha, Postemergence (flood test)
# [16] = Rate 125 g/ha, Postemergence section (flood test species)
# [17] = Rate 250 g/ha, Postemergence (flood test species)
# [18] = Preemergence, Rate 62 g/ha, scale of 0 to 10
structure (smiles),measurement,setting,value
CCc1cnc(-n2ccc(C(F)(F)F)n2)nc1C(=O)c1cccc(C#N)c1 [Compound 72],S. Flatsedge plant response rating,[1]; [15],3
same,S. Flatsedge plant response rating,[1]; [16],3
same,"Plant response rating, S. Flatsedge",[1]; [17],4
same,Ducksalad plant response rating,[2]; [15],2
same,Ducksalad plant response rating,[2]; [16],2
same,"Plant response rating, Ducksalad",[2]; [17],3
same,Rice plant response rating,rice (Oryza sativa); [15],0
same,Rice plant response rating,rice (Oryza sativa); [16],0
same,"Plant response rating, Rice",rice (Oryza sativa); [17],2
same,Barnyardgrass plant response rating,[3]; [15],2
same,Barnyardgrass plant response rating,[3]; [16],3
same,"Plant response rating, Barnyardgrass",[3]; [17],6
same,"Plant response rating, Wheat",[4]; [18],0
same,Wheat plant response rating,"[4]; Rate 62 g/ha, Postemergence",3
same,Wheat plant response rating,"[4]; Rate 125 g/ha, Postemergence",3
same,"Plant response rating, Wheat","[4]; Rate 125 g/ha, Preemergence",0
same,"Plant response rating, Wheat","[4]; Rate 250 g/ha, Postemergence",4
same,"Plant response rating, Wheat","[4]; Rate 250 g/ha, Preemergence",3
same,"Plant response rating, Redroot pigweed",[5]; [18],7
same,Redroot pigweed plant response rating,"[5]; Rate 62 g/ha, Postemergence",8
same,Redroot pigweed plant response rating,"[5]; Rate 125 g/ha, Postemergence",9
same,"Plant response rating, Redroot pigweed","[5]; Rate 125 g/ha, Preemergence",9
same,"Plant response rating, Redroot pigweed","[5]; Rate 250 g/ha, Postemergence",9
same,"Plant response rating, Redroot pigweed","[5]; Rate 250 g/ha, Preemergence",9
same,"Plant response rating, Morningglory",[6]; [18],2
same,Morningglory plant response rating,"[6]; Rate 125 g/ha, Postemergence",4
same,"Plant response rating, Morningglory","[6]; Rate 125 g/ha, Preemergence",3
same,"Plant response rating, Morningglory","[6]; Rate 250 g/ha, Postemergence",4
same,"Plant response rating, Morningglory","[6]; Rate 250 g/ha, Preemergence",8
same,"Plant response rating, Sugarbeets",[7]; [18],8
same,Sugarbeets plant response rating,"[7]; Rate 62 g/ha, Postemergence",9
same,Sugarbeets plant response rating,"[7]; Rate 125 g/ha, Postemergence",9
same,"Plant response rating, Sugarbeets","[7]; Rate 125 g/ha, Preemergence",10
same,"Plant response rating, Sugarbeets","[7]; Rate 250 g/ha, Postemergence",9
same,"Plant response rating, Sugarbeets","[7]; Rate 250 g/ha, Preemergence",10
same,B. signalgrass plant response rating,"[8]; Rate 62 g/ha, Postemergence",2
same,B. signalgrass plant response rating,"[8]; Rate 62 g/ha, Preemergence",1
same,B. signalgrass plant response rating,"[8]; Rate 125 g/ha, Postemergence",4
same,"Plant response rating, B. signalgrass","[8]; Rate 125 g/ha, Preemergence",2
same,"Plant response rating, B. signalgrass","[8]; Rate 250 g/ha, Postemergence",6
same,"Plant response rating, B. signalgrass","[8]; Rate 250 g/ha, Preemergence",7
same,"Plant response rating, Crabgrass",[9]; [18],6
same,Crabgrass plant response rating,"[9]; Rate 62 g/ha, Postemergence",4
same,Crabgrass plant response rating,"[9]; Rate 125 g/ha, Postemergence",6
same,"Plant response rating, Crabgrass","[9]; Rate 125 g/ha, Preemergence",9
same,"Plant response rating, Crabgrass","[9]; Rate 250 g/ha, Postemergence",8
same,"Plant response rating, Crabgrass","[9]; Rate 250 g/ha, Preemergence",9
same,"Plant response rating, Corn",corn (Zea mays); [18],3
same,Corn plant response rating,"corn (Zea mays); Rate 62 g/ha, Postemergence",2
same,Corn plant response rating,"corn (Zea mays); Rate 125 g/ha, Postemergence",3
same,"Plant response rating, Corn","corn (Zea mays); Rate 125 g/ha, Preemergence",4
same,"Plant response rating, Corn","corn (Zea mays); Rate 250 g/ha, Postemergence",5
same,"Plant response rating, Corn","corn (Zea mays); Rate 250 g/ha, Preemergence",5
same,"Plant response rating, Giant foxtail",[10]; [18],5
same,Giant foxtail plant response rating,"[10]; Rate 62 g/ha, Postemergence",5
same,Giant foxtail plant response rating,"[10]; Rate 125 g/ha, Postemergence",6
same,"Plant response rating, Giant foxtail","[10]; Rate 125 g/ha, Preemergence",5
same,"Plant response rating, Giant foxtail","[10]; Rate 250 g/ha, Postemergence",7
same,"Plant response rating, Giant foxtail","[10]; Rate 250 g/ha, Preemergence",7
same,"Plant response rating, Velvetleaf",[11]; [18],3
same,Velvetleaf plant response rating,"[11]; Rate 62 g/ha, Postemergence",2
same,Velvetleaf plant response rating,"[11]; Rate 125 g/ha, Postemergence",3
same,"Plant response rating, Velvetleaf","[11]; Rate 125 g/ha, Preemergence",4
same,"Plant response rating, Velvetleaf","[11]; Rate 250 g/ha, Postemergence",5
same,"Plant response rating, Velvetleaf","[11]; Rate 250 g/ha, Preemergence",7
same,"Plant response rating, Rape",rape (Brassica napus); [18],4
same,Rape plant response rating,"rape (Brassica napus); Rate 62 g/ha, Postemergence",3
same,Rape plant response rating,"rape (Brassica napus); Rate 125 g/ha, Postemergence",7
same,"Plant response rating, Rape","rape (Brassica napus); Rate 125 g/ha, Preemergence",5
same,"Plant response rating, Rape","rape (Brassica napus); Rate 250 g/ha, Postemergence",7
same,"Plant response rating, Rape","rape (Brassica napus); Rate 250 g/ha, Preemergence",9
same,"Plant response rating, Cocklebur",[12]; [18],0
same,Cocklebur plant response rating,"[12]; Rate 62 g/ha, Postemergence",3
same,Cocklebur plant response rating,"[12]; Rate 125 g/ha, Postemergence",4
same,"Plant response rating, Cocklebur","[12]; Rate 125 g/ha, Preemergence",0
same,"Plant response rating, Cocklebur","[12]; Rate 250 g/ha, Postemergence",4
same,"Plant response rating, Cocklebur","[12]; Rate 250 g/ha, Preemergence",0
same,"Plant response rating, Soybean",soybean (Glycine max); [18],0
same,Soybean plant response rating,"soybean (Glycine max); Rate 62 g/ha, Postemergence",2
same,Soybean plant response rating,"soybean (Glycine max); Rate 125 g/ha, Postemergence",2
same,"Plant response rating, Soybean","soybean (Glycine max); Rate 125 g/ha, Preemergence",3
same,"Plant response rating, Soybean","soybean (Glycine max); Rate 250 g/ha, Postemergence",5
same,"Plant response rating, Soybean","soybean (Glycine max); Rate 250 g/ha, Preemergence",3
same,"Plant response rating, Blackgrass",[13]; [18],1
same,Blackgrass plant response rating,"[13]; Rate 62 g/ha, Postemergence",4
same,Blackgrass plant response rating,"[13]; Rate 125 g/ha, Postemergence",5
same,"Plant response rating, Blackgrass","[13]; Rate 125 g/ha, Preemergence",1
same,"Plant response rating, Blackgrass","[13]; Rate 250 g/ha, Postemergence",5
same,"Plant response rating, Blackgrass","[13]; Rate 250 g/ha, Preemergence",4
same,"Plant response rating, Bedstraw",[14]; [18],0
same,"Plant response rating, Bedstraw","[14]; Rate 250 g/ha, Postemergence",4
same,"Plant response rating, Bedstraw","[14]; Rate 250 g/ha, Preemergence",5
same,"Plant response rating, Wild oats",wild oat (Avena fatua); [18],1
same,Wild oats plant response rating,"wild oat (Avena fatua); Rate 62 g/ha, Postemergence",2
same,Wild oats plant response rating,"wild oat (Avena fatua); Rate 125 g/ha, Postemergence",2
same,"Plant response rating, Wild oats","wild oat (Avena fatua); Rate 125 g/ha, Preemergence",2
same,"Plant response rating, Wild oats","wild oat (Avena fatua); Rate 250 g/ha, Postemergence",4
same,"Plant response rating, Wild oats","wild oat (Avena fatua); Rate 250 g/ha, Preemergence",3
